# Test results: patent US11524045B2, “Peptides for dry eye disease” (ALLYSTA PHARMACEUTICALS, INC., priority 2017, dated 2022)
# Entries after “also recorded” stand apart in the source; their conditions may differ.
# Legend:
# Assay type in all cases: in vivo, C57BL/6 mice
# [1] = system: desiccating stress-induced dry eye (experimental dry eye; EDE); assay: Tear film break-up time (TBUT) in mouse model of desiccating stress-induced dry eye; details: EDE mice, 5% Lifitegrast or 0.1% SEQ ID NO:1, 2 μL eye drops three times a day, five and 10-day endpoints, vs untreated dry eye (vehicle)
# Method: (§1) The following Methods were used to evaluate the efficacy, anti-inflammatory activity and the therapeutic potential of a peptide inhibitor of trans-endothelial migration peptide compared with 5% Lifitegrast in a mouse model of desiccating stress-induced dry eye (experimental dry eye; EDE).
# (§2) Desiccating stress was induced in six to eight-week-old female C57BL/6 mice by subcutaneous injection of 0.5 mg/0.2 mL scopolamine hydrobromide (Sigma-Aldrich, St. Louis, Mo.) three times a day ([…] given at 4.5 hr. intervals) with exposure to an air draft and 30% ambient humidity), which was maintained throughout the dosing period. During these experiments, the animals' behavior, food, and water intake were not restricted. Treatment was terminated and testing was conducted at endpoints of either five or ten days.
# Each treatment group comprised 5 animals (n=10 eyes/group) randomly assigned. The groups were treated topically as follows: • 1. Untreated (Normal) control mice that were not exposed to desiccating stress or treated topically • 2. EDE mice treated with balanced salt solution (BSS, vehicle, Alcon, Fort Worth, Tex.) • 3. EDE mice treated with 5% (wt) Lifitegrast (Shire Plc) • 4. […]
# All treatment groups received 2 μL eye drops three times a day. The mice in each treatment group: EDE treated with BSS, EDE treated with 5% Lifitegrast, and EDE treated with 0.1% SEQ ID NO:1 were dosed/treated three times/day with 2 uL eye drops of each treatment, respectively (except Normal group). […]
# After three blinks, tear film break-up time (BUT) was recorded in seconds using slit lamp biomicroscopy (BQ-900; Haag-Streit, Bern, Switzerland) under cobalt blue light. […]
# Tear Film Break-up: This experiment evaluated the anti-inflammatory activity and efficacy of the peptide inhibitor of trans-endothelial migration peptide in ameliorating Desiccation-induced Dry Eye (DED). Eyes were evaluated for time for dry spots to appear on the corneal surface of the eye after blinking. […] Subjects with normal tear quantity but an unstable tear film can explain dry eye symptoms. […]
# [2] = system: desiccating stress-induced dry eye (experimental dry eye; EDE); assay: Corneal fluorescein staining in mouse model of desiccating stress-induced dry eye; details: EDE mice; 5% Lifitegrast or 0.1% SEQ ID NO:1, 2 μL eye drops three times a day; five and ten days; vs untreated dry eyes
# Method: as §1, §2
# Each treatment group comprised 5 animals (n=10 eyes/group) randomly assigned. […]
# Ninety seconds after the fluorescein drops were added to measure TBUT, punctate staining on the corneal surface was evaluated in a masked fashion. Each cornea was divided into four quadrants that were scored individually. Corneal fluorescein staining severity score was calculated using a 4-point scale: 0=absent; 1=slightly punctate staining <30 spots; 2=punctate staining >30 spots, but not diffuse; 3=severe diffuse staining but no positive plaque; and 4=positive fluorescein plaque. […]
# [3] = system: CD4+ and CCR5+ T cells from the conjunctiva; assay: Flow cytometry of activated T cells from the conjunctiva in murine dry eye model; details: EDE mice; 0.1% SEQ ID NO:1 eye drops three times a day; after 10 days; normal range 15% to 22%, normal control 18.86%
# Method: as §1, §2
# Each treatment group comprised 5 animals (n=10 eyes/group) randomly assigned. The groups were treated topically as follows: • 1. […]
# Flow cytometry was performed for quantitation of CD4+ and CCR5+ T cells from the conjunctiva as previously described (Yoon K C, Heo H, Kang I S, et al. Cornea (2008) 27: 454-460). […]
# The number of CD4+ and CCR5+ T cells was counted by a FACSCalibur cytometer with CellQuest software (BD Biosciences).
# Eye conjunctiva was evaluated for the number of Activated T cells present in the conjunctiva for each group in the murine Dry Eye study. […]
Compound,tear film break-up time [1],corneal fluorescein staining grade (corneal disruptions) [2],tear film break-up time ([1]; listed as peptide inhibitor of trans-endothelial migration peptide),percentage of Activated T Cells within the conjunctiva [3] [%]
"CS(=O)(=O)c1cccc(C[C@H](NC(=O)c2c(Cl)cc3c(c2Cl)CCN(C(=O)c2ccc4ccoc4c2)C3)C(=O)O)c1 [Lifitegrast, reference compound]",can ameliorate induced dry eye; also recorded: can ameliorate DED,improved corneal disruptions,–,–
H-Ser-Val-Thr-Glu-Gln-Gly-Ala-Glu-Leu-Ser-Asn-Glu-Glu-Arg-NH2 (H-SVTEQGAELSNEER-NH2) [SEQ ID NO:1],noticeably improved tear film times at both endpoints,improved corneal disruptions,noticeably improved tear film times at both intervals,21.67
